Results taken from ChEMBL document CHEMBL1136639, “Synthesis and binding affinity of neuropeptide Y at opiate receptors” (Bioorg Med Chem Lett, 2003).
Activity calls are given as the source filed them. The rule behind the calls is not given here. Starred links: 1 amine or outer side, 2 acyl side, 3 side chain; linkers in the order of their positions; H or OH if unused. Non-standard residues stand in square brackets, D forms with d. Residues, ends and D or L forms follow the SMILES beside them. X1 = NCCCC[C@H](C(=O)[C@H](CO)N[*:1])C(=O)[*:2]

How the values were obtained:
[1] = molecular target: T1, Mu-type opioid receptor (Homo sapiens, UniProt P35372); experiment: Inhibitory activity against non-selective opiate receptor
[2] = molecular target: T1, Mu-type opioid receptor; experiment: Binding affinity towards non-selective opiate receptor
[3] = molecular target: T1, Mu-type opioid receptor; experiment: (§1) Inhibitory activity against non-selective opiate receptor; NA=Not active
[4] = molecular target: T1, Mu-type opioid receptor; experiment: Binding affinity towards non-selective opiate receptor; NA=Not active
[5] = molecular target: T1, Mu-type opioid receptor; experiment: as §1; remark: listed apart in the source

T1 sequence (P35372 whole entry): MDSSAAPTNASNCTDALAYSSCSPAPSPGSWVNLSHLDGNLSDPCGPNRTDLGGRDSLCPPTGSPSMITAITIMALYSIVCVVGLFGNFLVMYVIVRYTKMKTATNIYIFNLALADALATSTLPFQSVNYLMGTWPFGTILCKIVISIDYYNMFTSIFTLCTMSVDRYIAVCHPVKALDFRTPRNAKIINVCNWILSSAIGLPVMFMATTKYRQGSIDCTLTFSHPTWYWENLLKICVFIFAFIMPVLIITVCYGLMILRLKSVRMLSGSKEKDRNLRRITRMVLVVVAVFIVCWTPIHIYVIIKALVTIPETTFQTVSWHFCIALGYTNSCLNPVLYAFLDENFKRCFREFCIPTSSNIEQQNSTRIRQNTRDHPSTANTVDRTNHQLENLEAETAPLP

Question: Which IC50 [1] does the source give for `CC[C@H](C)[C@H](NC(=O)[C@H](Cc1ccc(O)cc1)NC(=O)[C@H](Cc1c[nH]cn1)NC(=O)[C@H](CCCN=C(N)N)NC(=O)[C@H](CC(C)C)NC(=O)[C@H](C)NC(=O)[C@@H](N)CO)C(=O)N[C@@H](CC(N)=O)C(=O)N[C@@H](CC(C)C)C(=O)N[C@H](C(=O)N[C@H](C(=O)N[C@@H](CCCN=C(N)N)C(=O)N[C@@H](CCC(N)=O)C(=O)N[C@@H](CCCN=C(N)N)C(=O)N[C@@H](Cc1ccc(O)cc1)C(=O)O)[C@@H](C)O)[C@@H](C)CC` here?
Answer: 10 µM

Question: And the Ki [2]?
Answer: 5.1 µM

Question: Which IC50 [1] does the source give for `NCCCC[C@H](C(=O)[C@H](CO)NC(=O)[C@@H]1CCCN1C(=O)[C@@H](N)Cc1ccc(O)cc1)C(=O)N1CCC[C@H]1C(=O)N[C@@H](CC(=O)O)C(=O)O` (H-YP[X1]PD-OH) here?
Answer: 1.8 µM

Question: What about the Ki [2] of the same compound?
Answer: 1 µM

Question: How did the IC50 [3] turn out when `NCCCC[C@H](C(=O)[C@H](CO)NC(=O)[C@@H]1CCCN1C(=O)[C@@H](N)Cc1ccc(O)cc1)C(=O)N1CCC[C@H]1C(=O)N[C@@H](CC(=O)O)C(=O)N[C@@H](CC(N)=O)C(=O)N1CCC[C@H]1C(=O)O` (H-YP[X1]PDNP-OH) was run?
Answer: Not Active

Question: What about the Ki [4] of the same compound?
Answer: Not Active

Question: For `NC(=O)[C@@H]1CCCN1C(=O)[C@H](Cc1ccccc1)NC(=O)[C@@H]1CCCN1C(=O)[C@@H](N)Cc1ccc(O)cc1` [MORPHICEPTIN] (H-YPFP-NH2), which IC50 [1] is on record?
Answer: 0.32 µM

Question: What about the Ki [2] of the same compound?
Answer: 0.15 µM

Question: How did the IC50 [1] turn out when H-FPSKP-OH was run?
Answer: 15 µM

Question: What about the Ki [2] of the same compound?
Answer: 7.5 µM

Question: For H-INLITRQRY-OH, which Ki [4] is on record?
Answer: Not Active

Question: And the NA [5]?
Answer: inactive
